Assay results published in paper PMC3466269, “A Comprehensive Strategy to Discover Inhibitors of the Translesion Synthesis DNA Polymerase κ” (PLoS ONE, 2012).
Like-named read-outs stand apart in the source and are kept apart here.

Columns and labels:
pol κ = settings: cited from earlier work
[1] = molecular target: T1, Human pol κ (residues 19–526) (Homo sapiens, UniProt Q9UBT6); assay: qHTS fluorescence-based DNA strand displacement assay; format: biochemical
T1 construct: Human pol κ (residues 19–526) was purified as previously reported; made in house
T1 sequence (Q9UBT6 19-526): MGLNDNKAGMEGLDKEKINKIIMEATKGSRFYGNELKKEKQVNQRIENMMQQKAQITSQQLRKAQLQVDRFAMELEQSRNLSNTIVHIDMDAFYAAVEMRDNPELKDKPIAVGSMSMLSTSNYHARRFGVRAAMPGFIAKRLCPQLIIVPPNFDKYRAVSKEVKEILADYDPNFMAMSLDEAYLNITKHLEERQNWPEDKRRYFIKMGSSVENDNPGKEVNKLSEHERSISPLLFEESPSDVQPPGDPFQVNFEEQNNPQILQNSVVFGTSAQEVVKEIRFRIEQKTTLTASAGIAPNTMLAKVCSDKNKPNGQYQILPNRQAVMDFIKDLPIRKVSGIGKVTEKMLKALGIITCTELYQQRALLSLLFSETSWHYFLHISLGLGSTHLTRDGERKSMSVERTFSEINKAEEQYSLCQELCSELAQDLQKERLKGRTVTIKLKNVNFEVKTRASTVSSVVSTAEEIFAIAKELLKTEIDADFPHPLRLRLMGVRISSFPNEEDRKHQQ
Method: The substrate used in qHTS was made by the annealing of unlabeled oligodeoxynucleotide primer (5′-TCACCCTCGTACGACTC-3′) and TAMRA-labeled reporter strand (5′-TTTTTTTTTTGC-6-TAMRA-3′) to oligodeoxynucleotide template labeled with BHQ-2 (5′-BHQ-2-[…]-3′) as originally described by Dorjsuren et al.. The annealing mixture of unlabeled primer, TAMRA-labeled reporter, and BHQ-2-labeled template in buffer containing 50 mM Tris-HCl, pH 8.0, 100 mM NaCl, and 5 mM MgCl2 was heated at 95°C for 5 min and allowed to cool gradually to room temperature. The substrate was then stored at −20°C as 50 µM stock.
qHTS was performed in 50 mM Tris-HCI, pH 8.0, 40 mM NaCl, 1 mM MgCl2, 0.01% Tween-20, 2 mM DTT, and 100 µM dTTP. 3 µL of reagents (buffer as negative control and pol κ in the remaining plate at 10 nM final concentration) were dispensed by Flying Reagent Dispenser™ (FRD) (Beckman Coulter, Inc., Fullerton, CA) into a 1,536-well plate. Compounds were delivered as 23 nL in DMSO solution via pintool transfer; vehicle-only control consisted of 23 nL DMSO. The plate was incubated for 15 min at room temperature, and then 1 µL of substrate (50 nM final concentration) was added to initiate the reaction. The plate was immediately transferred into ViewLux reader for kinetic fluorescence data collection.
To lay the foundation for the methodologies to discover and characterize inhibitors of pol κ, we used a fluorescent reporter strand displacement assay (Figure 1 and [27]). The library of bioactive small molecules was tested as seven-point dilution series, with the final concentrations ranging from 2.9 nM to 57 µM.

Human pol κ [2] = molecular target: T2, Human pol κ (Homo sapiens, UniProt Q9UBT6); assay: Radioactive gel-based primer extension assay on non-damaged DNA, pol κ; format: biochemical
T2 construct: Human pol κ (residues 19–526) was purified as previously reported; made in house
T2 sequence (Q9UBT6 19-526): T1 sequence (Q9UBT6 19-526)
Method: (§1) The reactions with pol κ, pol η, and pol ι were carried out in the buffers containing 25 mM Tris-HCl, pH 7.5, 8 mM MgCl2, 10% glycerol, 100 µg/mL bovine serum albumin, and 5 mM DTT. Buffers for pol δ reactions contained 40 mM Hepes-KOH, pH 6.8, 10% glycerol, 200 µg/mL bovine serum albumin, 1 mM DTT, and 8 mM MgCl2. Final concentration of pol κ, pol η, pol ι, or pol δ in the reaction was 0.25 nM, 1 nM, 2.5 nM, or 4 nM, respectively. In this assay, a polymerase was preincubated with the compound for 15 min at room temperature. Primer extensions were then initiated by the addition of DNA substrate at final concentration of 5 nM and carried out for 30 min at room temperature in the presence of 100 µM dCTP and dGTP. The reactions were terminated by the addition of an equal volume of a dye solution containing 95% (v/v) formamide, 10 mM EDTA, 0.03% (w/v) xylene cyanol, and 0.03% (w/v) bromphenol blue. Reaction products were separated through a 15% acrylamide gel containing 8 M urea and visualized with a PhosphorImager screen. The ratio of extended primer to the total amount of primer was measured using ImageQuant 5.2 software to calculate the percentage of primer extended. IC50 values were determined by fitting the data to variable slope four-parameter equations using GraphPad Prism 5.

XP30RO cells (XP-V) = assay: Cell survival assay, crystal violet, with or without UV; settings: crystal violet; inhibitor 6 h then UV 1.5, 4.5 or 7.5 J/m^2; candesartan cilexetil 24 µM
Method: Cell survival assays were carried out using crystal violet assays and CellTiter-Glo Luminescent Cell Viability Assays. In crystal violet assays, XP30RO cells were plated into clear 96-well plates at a density of 8000 cells/mL and incubated overnight at 37°C, 5% CO2. The cells were treated with (1) inhibitor alone for 6 h or (2) UV alone or (3) inhibitor alone for 6 h followed by UV irradiation. After 2 days, cells were fixed with 4% paraformaldehyde and stained with 0.5% crystal violet dye. The dye was dissolved in 10% acetic acid and absorbance measurement was taken at OD595 nm with Infinite® M200 plate reader (Tecan, Durham, NC). For the CellTiter-Glo Luminescent Cell Viability Assays, the same procedures as crystal violet assays were used except that white/clear bottom 96-well plates were used and cell viability was measured following manufacturer's recommendations.
XP30RO cells were treated with 24 µM of candesartan cilexetil alone, UV alone at 1.5 J/m^2, 4.5 J/m^2, or 7.5 J/m^2, or in combination. Percent survival was calculated by normalizing the data using the cell survival of untreated cells. The data were obtained from three independent experiments.

Human pol κ [3] = molecular target: T2, Human pol κ; assay: Radioactive gel-based primer extension (TLS) past acrolein-derived ring-opened reduced form of γ-HOPdG, pol κ; format: biochemical
Method: as §1
The primary role of pol κ is to bypass DNA lesions. Therefore, it was critical to establish the assays to investigate the capability of these compounds to inhibit lesion bypass activity of pol κ. Radioactive gel-based primer extension reactions were carried out using a DNA substrate containing a site-specific acrolein-derived ring-opened reduced form of γ-HOPdG, a lesion that pol κ can efficiently bypass in vitro [13].

mouse pol ι = test system: mouse pol ι; parameters: method as in PMID 19223184; settings: read-out: IC50 against pol ι; cited from earlier work
[4] = test system: double-stranded DNA ladder; assay: DNA intercalation assay (agarose gel shift of DNA ladder); format: binding; settings: 0.75 or 3 nmol compound with 1.5 nmol DNA, 1% agarose gel
Method: Candesartan cilexetil or ethidium bromide was incubated with 1.5 nmol of double-stranded DNA ladder for 15 min at room temperature in the buffer containing 50 mM Tris-HCl, pH 8.0, 0.01% Tween-20, 1 mM DTT, and 40 mM NaCl. The reaction mixtures were run on 1% agarose gel and stained with ethidium bromide (0.5 µg/ml) for visualization.
Figure 7 The non-DNA-intercalating property of candesartan cilexetil. Candesartan cilexetil or ethidium bromide was incubated with double-stranded DNA ladder, and the reaction products were run on 1% agarose gel and stained with ethidium bromide. Lane 1: No compound. Lane 2: 0.75 nmol of candesartan cilexetil was incubated with 1.5 nmol DNA. Lane 3: 3 nmol of candesartan cilexetil was incubated with 1.5 nmol DNA. Lane 4: 0.75 nmol of ethidium bromide was incubated with 1.5 nmol DNA. Lane 5: 3 nmol of ethidium bromide was incubated with 1.5 nmol DNA.

pol α = test system: pol α; parameters: method as in PMID 20599777; settings: cited from earlier work

Compound: CC1=CC[C@H]2C(C)(C)CCC[C@]2(C)[C@H]1CCCCCCCCCCCCCCCCC(=O)O (relative stereo) [(1S*,4aS*,8aS*)-17-(1,4,4a,5,6,7,8,8a-octahydro-2,5,5,8a-tetramethylnaphthalen-1-yl)heptadecanoic acid]
- IC50 (pol κ): 7.2 µM

Compound: C/C=C/c1occ(C(=O)c2c(OC)cc(OC)cc2C(=O)OC)c(=O)c1OC [3-O-methylfunicone]
- IC50 (pol κ): 12.5 µM

Compound: CCCCCCCCCCCC(=O)Oc1cccc2c1C(=O)C=CC2=O [C12:0-Acyl juglone]
- IC50 (pol κ): 6.8 µM

Compound: CC1(C)[C@@H](O)CC[C@]2(C)[C@H]3C(=O)C=C4[C@@H]5C[C@@](C)(C(=O)O)CC[C@]5(C)CC[C@@]4(C)[C@]3(C)CC[C@@H]12 [Glycyrrhetinic acid]
- IC50 (pol κ): 15.8 µM

Compound: CC(C)c1ccc2c(c1)c(SC(C)(C)C)c(CC(C)(C)C(=O)O)n2Cc1ccc(Cl)cc1 [MK-886]
- IC50 ([1]; fluorescence strand displacement, 10 nM pol κ, 50 nM substrate, 100 µM dTTP, read-out: qHTS: IC50): 30 µM
- IC50 (Human pol κ [2]; primer extension, non-damaged DNA, 0.25 nM pol κ, average ± standard error, three experiments, read-out: gel: non-damaged: IC50): 13 ± 1.7 µM
- Effect on UV-induced cytotoxicity (XP30RO cells (XP-V)): failed to enhance UV toxicity
- IC50 (Human pol κ [3]; primer extension, adducted DNA, 0.25 nM pol κ, average ± standard error, three experiments, read-out: gel: ring-opened reduced form of γ-HOPdG: IC50): 14 ± 0.9 µM

Compound: C/C=C/C(=O)C1=C(OC)OC(C)(/C=C/C=C/C(C)O)C1=O (stereo not drawn) [Penicilliol A]
- IC50 (mouse pol ι): 19.8 µM

Compound: COC1=C(C(=O)CC(C)O)C(=O)C(C)(/C=C/C=C/C(C)O)O1 (stereo not drawn) [Penicilliol B]
- IC50 (mouse pol ι): 32.5 µM

Compound: CC[n+]1c(-c2ccccc2)c2cc(N)ccc2c2ccc(N)cc21 [ethidium bromide]
- DNA migration pattern (intercalation) [4]: bands shifted upwards

Compound: CC1=C(CC/C(C)=C/CCC2=CC[C@H](C3=CC(=O)O[C@H]3O)O[C@H]2O)C(C)(C)CCC1 [manoalide]
- IC50 [1]: 9.5 µM
- IC50 (Human pol κ [2]): 3.4 ± 0.9 µM
- Effect on UV-induced cytotoxicity (XP30RO cells (XP-V)): failed to enhance UV toxicity
- IC50 (Human pol κ [3]): 5.6 ± 0.9 µM

Compound: O=C(OC[C@H]1O[C@@H](OC(=O)c2cc(O)c(O)c(O)c2)[C@H](OC(=O)c2cc(O)c(O)c(O)c2)[C@@H](OC(=O)c2cc(O)c(O)c(O)c2)[C@@H]1OC(=O)c1cc(O)c(O)c(O)c1)c1cc(O)c(O)c(O)c1 [penta-1,2,3,4,6-O-galloyl-beta-D-glucose]
- IC50 (pol α): 0.013 µM
- IC50 (pol κ): 0.03 µM

Compound: C18:1-Acyl juglone
- IC50 (pol κ): 8.1 µM
